Patent US9102710B2, “Cyclic peptides binding CXCR4 receptor and relative medical and diagnostic uses” (IRCCS-ISTITUTO NAZIONALE PER LO STUDIO E LA CURA DEI TUMORI …, priority 2010, dated 2015)

How the values were obtained:
[1] = target: T1, CXCR4 receptor (Homo sapiens, UniProt P61073); assay: Cytofluorimetric determination of Ca2+ release in CCFR-CEM cells after stimulation with SDF-1α; type: cell-based; settings: compound 10 uM, read-out: reduction (inhibition) of Calcium release induced by SDF-1α
T1 construct: a leukaemia T CD4+ cell line with a high expression of the CXCR4 receptor; endogenous in cells; host or cells: CCRF-CEM (printed also CCFR-CEM) leukaemia T CD4+ cells
T1 sequence (P61073 whole entry): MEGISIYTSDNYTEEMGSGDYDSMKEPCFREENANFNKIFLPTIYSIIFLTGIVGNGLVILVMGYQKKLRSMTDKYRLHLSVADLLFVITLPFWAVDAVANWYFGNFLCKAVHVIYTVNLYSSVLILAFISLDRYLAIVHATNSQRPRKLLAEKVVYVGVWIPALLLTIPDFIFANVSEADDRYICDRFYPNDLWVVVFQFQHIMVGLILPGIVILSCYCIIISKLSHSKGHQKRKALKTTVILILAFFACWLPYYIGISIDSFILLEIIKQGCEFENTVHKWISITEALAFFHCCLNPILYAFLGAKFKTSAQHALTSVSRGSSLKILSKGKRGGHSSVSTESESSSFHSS
Excerpt: For all the subsequent in vitro examples, two cell lines were used: CCFR-CEM and PES 43; the first is a leukaemia T CD4+ cell line with a high expression of the CXCR4 receptor, grown in a RPMI 1640 culture medium enriched with 10% of Fetal Bovine Serum (FBS) inactivated with heat and 1% of L-Glutamine; the second is a cell line deriving from melanoma lung metastasis called PES43 with a high expression of the CXCR4 receptor, grown in Iscove's Modified Dulbecco's Medium (IMDM) supplemented with 10% of Fetal Bovine Serum (FBS) inactivated with heat and 1% of Penicillin-Streptomycin.
The determination of the release of intracellular Calcium was effected in CCFR-CEM cells. The cells (500,000 cells) were washed with PBS, resuspended in 1 ml of Loading Buffer (PBS 1×, 1 mM CaCl2, 1 mM MgCl2, 1% FBS inactivated with heat) at 37° C., and incubated with 4 ul of the calcium tracer FLUO3-AM (1 mg/ml; Sigma) and 4 ul of Pluronic Acid F-127 (1 mg/ml in 2% of DMSO; Invitrogen) in the dark for 30′ at 37° C. under stirring. In order to remove the excess FLUO3-AM, 3 ml of Loading Buffer are added, this is followed by a centrifugation for 5′ at 1,000-1,200 rpm. The pellet thus obtained is resuspended in 1 ml of Loading Buffer. […]

[2] = system: phosphorylation of ERK 1,2; assay: p-ERK induction by Immunoblotting in PES43 cells; type: cell-based, human; settings: AMD3100 1 uM, SDF-1α 100 ng/ml
Protocol: CXCL12 activates the phosphorylation of ERK and this phosphorylation is inhibited by both AMD3100 (1 uM), and by the peptides css:[C-WHR-C] (10 uM), css:[C-FFR-C] (10 uM), css:[C-FFR-C]-Nam (10 uM), css:[C-WYR-C]-AR (10 uM), RA-css:[C-RFF-C] (10 uM), RA-css:[C-RHW-C] (10 uM), abb:[β-Ala-WHR-β-Ala] (10 uM).
The activation of CXCR4 induces the transduction path of MAPK through the phosphorylation of ERK 1,2. For this reason, the modulation of the induction of P-ERK was evaluated in relation to treatment with SDF-1α (100 ng/ml), peptides (10 uM) and AMD3100 (1 uM).
The cells were deprived of serum for 24 hours and then stimulated with SDF-1α.
The human melanoma cells, PES43, grown on 100 mm plates, were treated with SDF-1α, for 2-5-7-10 minutes. The cells were then mechanically detached, lysed in a specific buffer to which protease inhibitors and phosphatase inhibitors were added (120 mM NaCl, 40 mM Hepes, 5 mM MgCl2, 1 mM EGTA, 0.5 mM EDTA, 0.6% Triton, 10% glycerol, […], 1 mM Na3VO4, 1 mM NaF). The cell lysates thus obtained (50 μg of total proteins) were first denatured with Laemmli 4× and then separated with SDS-PAGE on gel at 10% in the presence of a running buffer (Tris Base, Glycine, SDS); the proteins were subsequently transferred onto a nitrocellulose membrane in incubated with primary antibodies specific for the following proteins: phospho-ERK 1/2, total ERK. […]

[3] = cited from earlier work

- inhibition at 10 µM [1]: 70%
Structure (SMILES): c1cc(CN2CCCNCCNCCCNCC2)ccc1CN1CCCNCCNCCCNCC1 [AMD3100, 1,19-[1,4-phenylenebis(methylene)]-bis-1,4,8,11-azatetradecane]
- inhibition of SDF-1α-activated phosphorylation of ERK [2]: inhibited
- time of peak of increase in white blood cell series after administration ([3]; healthy volunteers, Phase 1): 6 h
- bioavailability ([3]; previous studies [4]): poor
- toxicity ([3]; previous studies [4]): hepatic, cardiac and cerebellar toxicity
